Structures can show the parent of a compound that is named as a salt. Where only a bound is given, the exact number is not on record here.

Melting point and IC50 data for 19 molecules are collected here from patent US8969565B2, “Imidazo[1,2-b]pyridazine-based compounds, compositions comprising them, and methods of their use” (Lexicon Pharmaceuticals, Inc., priority 2012, dated 2015).

Data set [1] addresses T1, AAK1 (Homo sapiens, UniProt Q2M2I8).
T1 construct: HA; expressed in transfected cells; host or cells: HEK293F
Nature of the data set: P81 filter plate assay. It is filed as biochemical. The following applies: full-length human AAK1, Mu2 substrate.

In data set [2] the target is T1, AAK1. Nature of the data set: HEK281 cell-based assay (phospho-mu2 Western blot in transfected HEK293F cells). The following applies: 3 hours incubation, read-out: CBA IC50. In a few lines:
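HEK293F cells co-transfected with full-length human AAK1/HA and Flag/AP2M1 were treated next day with 5 compound concentrations (3-fold dilutions) in DMEM+0.5% FBS for 3 hours at 37° C. Lysates were Western blotted for phospho-mu2, with total mu2 detected by anti-Flag.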
In general terms: Immunoblotting shows a protein as a band on a membrane.

T1 sequence (Q2M2I8 1-863 isoform Q2M2I8-2): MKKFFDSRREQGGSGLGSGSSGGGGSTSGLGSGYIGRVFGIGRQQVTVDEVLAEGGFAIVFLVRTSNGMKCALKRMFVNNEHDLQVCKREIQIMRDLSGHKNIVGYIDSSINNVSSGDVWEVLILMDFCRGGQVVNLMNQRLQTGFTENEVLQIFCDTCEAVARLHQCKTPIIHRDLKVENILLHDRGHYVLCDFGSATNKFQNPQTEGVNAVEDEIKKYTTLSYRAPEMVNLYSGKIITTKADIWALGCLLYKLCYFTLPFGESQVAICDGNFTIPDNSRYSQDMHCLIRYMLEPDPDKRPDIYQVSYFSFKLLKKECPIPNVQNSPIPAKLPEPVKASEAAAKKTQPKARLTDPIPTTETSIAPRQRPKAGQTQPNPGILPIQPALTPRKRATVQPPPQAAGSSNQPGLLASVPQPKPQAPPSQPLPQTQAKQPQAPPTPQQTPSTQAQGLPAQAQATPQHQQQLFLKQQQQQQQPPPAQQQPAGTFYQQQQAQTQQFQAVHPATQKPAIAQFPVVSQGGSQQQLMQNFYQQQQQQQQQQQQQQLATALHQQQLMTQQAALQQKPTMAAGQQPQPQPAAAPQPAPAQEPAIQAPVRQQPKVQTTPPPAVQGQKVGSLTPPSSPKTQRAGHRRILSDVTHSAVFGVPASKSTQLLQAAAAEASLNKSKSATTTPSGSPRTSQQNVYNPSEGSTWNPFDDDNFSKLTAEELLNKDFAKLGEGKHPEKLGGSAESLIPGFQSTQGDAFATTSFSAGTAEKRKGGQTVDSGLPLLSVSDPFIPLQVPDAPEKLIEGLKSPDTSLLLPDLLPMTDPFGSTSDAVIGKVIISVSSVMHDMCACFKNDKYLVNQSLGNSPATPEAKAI

Regarding `COc1ncccc1-c1cnc2ccc(N3CCN(C(=O)OC(C)C)CC3)nn12` (as salt: hydrochloride) [Example 5.6.151, 4-[3-(2-Methoxy-pyridin-3-yl)-imidazo[1,2-b]pyridazin-6-yl]-piperazine-1-carboxylic acid isopropyl ester], the melting point is 179 to 181 °C (dec.).

In the case of `CC(C)(C)NC(=O)N1CCN(c2ccc3ncc(-c4ccccc4)n3n2)CC1` (as salt: hydrochloride) [N-(tert-Butyl)-4-(3-phenylimidazo[1,2-b]pyridazin-6-yl)piperazine-1-carboxamide], the melting point is 210 to 211 °C (dec.).

As to `CC(C)NC(=O)N1CCN(c2ccc3ncc(-c4ccccc4)n3n2)CC1` (as salt: hydrochloride) [N-Isopropyl-4-(3-phenylimidazo[1,2-b]pyridazin-6-yl)piperazine-1-carboxamide], the melting point was 217 to 218 °C (dec.).

For `CC(C)SC(=O)N1CCN(c2ccc3ncc(-c4ccccc4)n3n2)CC1` (as salt: hydrochloride) [S-Isopropyl 4-(3-phenylimidazo[1,2-b]pyridazin-6-yl)piperazine-1-carbothioate], the melting point was 276 to 277 °C (dec.).

`O=C(N1CCCC1)N1CCN(c2ccc3ncc(-c4ccccn4)n3n2)CC1` (as salt: hydrochloride) [[4-(3-Pyridin-2-yl-imidazo[1,2-b]pyridazin-6-yl)-piperazin-1-yl]-pyrrolidin-1-yl-methanone]: the melting point was in the range of 202 to 203 °C.

On to `CC(C)OC(=O)N1CCN(c2ccc3ncc(Br)n3n2)C(C)C1` (racemic) [Example 5.6.146, Isopropyl 4-(3-bromoimidazo[1,2-b]pyridazin-6-yl)-3-methylpiperazine-1-carboxylate], for which the melting point lay in the range of 52 to 54 °C.

Consider `CC(C)OC(=O)N1CCN(c2ccc3ncc(Br)n3n2)CC1C` (racemic) [Example 5.6.147, Isopropyl 4-(3-bromoimidazo[1,2-b]pyridazin-6-yl)-2-methylpiperazine-1-carboxylate], for which the melting point was in the range of 144 to 145 °C.

For `COc1ccccc1-c1cnc2ccc(N3C[C@H]4C[C@@H]3CN4C(=O)OC(C)C)nn12` (stereo in doubt) (as salt: hydrochloride) [Example 5.6.154, Isopropyl 5-(3-(2-methoxyphenyl)imidazo[1,2-b]pyridazin-6-yl)-2,5-diazabicyclo[2.2.1]heptane-2-carboxylate], the melting point fell in the range of 173 to 174 °C.

In the case of `CC(C)(C)NC(=O)N1CCN(c2ccc3ncc(Br)n3n2)CC1` [4-(3-Bromoimidazo[1,2-b]pyridazin-6-yl)-N-(tert-butyl)piperazine-1-carboxamide], the melting point was in the range of 199 to 200 °C. Also, the half-inhibitory concentration (IC50) on AAK1 [1] was no more than 10 nM. In addition, at AAK1 [2], the 50% inhibitory concentration (IC50) was no more than 100 nM.

Regarding `CC(C)(C)OC(=O)N1CCN(c2ccc3ncc(-c4ccccc4)n3n2)CC1` [4-(3-Phenyl-imidazo[1,2-b]pyridazin-6-yl)-piperazine-1-carboxylic acid tert-butyl ester], the melting point was 101 to 103 °C (dec.). On AAK1 [1], this molecule displayed a concentration for half-maximal inhibition (IC50) of no more than 10 nM. Further, the IC50 on AAK1 [2] was no more than 100 nM.

Regarding `CCCCNc1ccc2ncc(-c3ccc(-c4nnn[nH]4)cc3)n2n1` [Butyl-{3-[4-(1H-tetrazol-5-yl)-phenyl]-imidazo[1,2-b]pyridazin-6-yl}-mine], the melting point fell in the range of 270 to 271 °C. Further, on AAK1 [2], the IC50 is no more than 1000 nM.

The molecule `CC(=O)c1ccc(-c2cnc3ccc(N(C)CCCNC(=O)OC(C)(C)C)nn23)s1` [Example 5.6.27, (3-{[3-(5-Acetyl-thiophen-2-yl)-imidazo[1,2-b]pyridazin-6-yl]-methyl-amino}-propyl)-carbamic acid tert-butyl ester] had a melting point of 148 to 149 °C.

Regarding `CCCCNc1ccc2ncc(-c3ccc(-c4noc(=O)[nH]4)cc3)n2n1` [Example 5.6.49, 3-[4-(6-Butylamino-imidazo[1,2-b]pyridazin-3-yl)-phenyl]-4H-[1,2,4]oxadiazol-5-one], the melting point is 253 to 254 °C (dec.).

Molecule `CN(CCNc1ccc2ncc(Br)n2n1)C(=O)OC(C)(C)C` [Example 5.6.56, [2-(3-Bromo-imidazo[1,2-b]pyridazin-6-ylamino)-ethyl]-methyl-carbamic acid tert-butyl ester] displayed a melting point of 128 to 129 °C.

Take `CC(C)N(CCNc1ccc2ncc(Br)n2n1)C(=O)OC(C)(C)C` [Example 5.6.72, [2-(3-Bromo-imidazo[1,2-b]pyridazin-6-ylamino)-ethyl]-isopropyl-carbamic acid tert-butyl ester]: the melting point lay in the range of 154 to 155 °C.

Turning to `CC(C)OC(=O)N1CCN(c2ccc3ncc(Br)n3n2)CC1` [Example 5.6.102, 4-(3-Bromo-imidazo[1,2-b]pyridazin-6-yl)-piperazine-1-carboxylic acid isopropyl ester], the melting point lay in the range of 123 to 124 °C.

On to `CC(C)(C)OC(=O)N1CCC[C@H]1CNc1ccc2ncc(I)n2n1` [Example 5.6.107, (S)-2-[(3-Iodo-imidazo[1,2-b]pyridazin-6-ylamino)-methyl]-pyrrolidine-1-carboxylic acid tert-butyl ester], for which the melting point lay within 138 to 139 °C.

The molecule `COc1cnccc1-c1cnc2ccc(N3CCCN(C(=O)OC(C)(C)C)CC3)nn12` [Example 5.6.121, 4-[3-(3-Methoxy-pyridin-4-yl)-imidazo[1,2-b]pyridazin-6-yl]-[1,4]diazepane-1-carboxylic acid tert-butyl ester] returned a melting point of 115 to 116 °C.

On to `CCCCN(C)c1ccc2ncc(-c3ccc(CN)cc3)n2n1` [[3-(4-Aminomethyl-phenyl)-imidazo[1,2-b]pyridazin-6-yl]-butyl-methyl-amine], for which the melting point is 99 to 101 °C. Also, the IC50 on AAK1 [2] is no more than 1000 nM.

What is called melting point is the temperature, or range, at which the solid turns liquid. As a reminder, the IC50 is the concentration at which inhibition is half-maximal.
